Columns and labels:
B16 melanoma cells = assay: Cell viability of B16 melanoma cells (DM1, cD31N-DM1); assay type: cell-based; settings: 0.0001 nm to 1000 nm, after 3 days
Source text: (§1) Cancer cell lines were acquired from ATCC and cultured according to well known methods in the art. Treatment with cytotoxic agents, antibodies, or ADCs refers to the addition of the cytotoxic agent, antibody or ADC (i.e., DM1 or cD31N-DM1, etc.) to the culture media for a set duration.

[1] = test system: Capan-1 pancreatic cancer cells; assay: Cell viability of Capan-1 cells (DM1, cD31N-DM1); assay type: cell-based; settings: after 6 days
Source text: as §1

[2] = test system: DAYO medulloblastoma cells; assay: Cell viability of DAYO cells (DM1, cD31N-DM1); assay type: cell-based; settings: after 3 days
Source text: as §1

GL261 glioma cells = assay: Cell viability of GL261 cells (DM1, cD31N-DM1); assay type: cell-based; settings: after 6 days
Source text: as §1

[3] = test system: WT DLD-1 colorectal adenocarcinoma cells; assay: Cell viability assay in WT DLD-1 cells; assay type: cell-based, human; settings: after 6 days
Source text: as §1
(§2) BRCA2 deficient (BRCA2′) cells are more sensitive to DM1 because BRCA2 participates in DNA double-stranded break (DSB) repair.
The viability assay protocol is set forth in Example 3.

[4] = test system: BRCA2^−/− DLD-1 colorectal adenocarcinoma cells; assay: Cell viability assay in BRCA2-/- DLD-1 cells; assay type: cell-based, human; settings: BRCA2-/- DLD-1 cells, after 6 days
Source text: as §1, §2

[5] = test system: PEO-4 (WT) ovarian adenocarcinoma cells; assay: Cell viability of PEO-4 cells; assay type: cell-based; settings: WT PEO-4 cells, after 5 days
Source text: as §1
(§3) The effects of longer-term treatment with SN38 and cD31N-SN38 on PEO-4 (WT) and PEO-1 (BRCA2^−/−) ovarian cancer cells were investigated.

[6] = test system: PEO-1 (BRCA2^−/−) ovarian adenocarcinoma cells; assay: Cell viability of PEO-1 cells; assay type: cell-based; settings: BRCA2-/- PEO-1 cells, after 5 days
Source text: as §1, §3

COc1cc2cc(c1Cl)N(C)C(=O)C[C@H](OC(=O)[C@H](C)N(C)C(=O)CCS)[C@]1(C)O[C@H]1[C@H](C)[C@@H]1C[C@@](O)(NC(=O)O1)[C@H](OC)/C=C/C=C(\C)C2 [DM1, N(2′)-deacetyl-N(2′)-(3-mercapto-1-oxopropyl)-maytansine]
cytotoxicity (cell viability) (B16 melanoma cells): cytotoxic to B16 melanoma cells in a concentration-dependent manner
cytotoxicity (cell viability) [1]: cytotoxic to the Capan-1 pancreatic cancer cells in a concentration-dependent manner
cytotoxicity (cell viability) [2]: cytotoxic to the DAYO medulloblastoma cells in a concentration-dependent manner
cytotoxicity (cell viability) (GL261 glioma cells): cytotoxic to the GL261 glioma cells in a concentration-dependent manner
cytotoxicity (cell viability) [3]: cytotoxic
cytotoxicity (cell viability) [4]: cytotoxic
cytotoxicity (cell viability) [5]: cytotoxic
cytotoxicity (cell viability) [6]: cytotoxic
